Reference: PubChem BioAssay AID1963985 (Molecular Pharmacology Branch, DTP, NCI, 2024)

Tested on: 252836-082-R-J2-PDC tumor spheroids, viability
Test: Anticancer human tumor 252836-082-R-J2-PDC patient-derived head and neck squamous cell carcinoma cell line growth inhibition [PI3K]
Conditions: spheroids with HUVEC and MSC; for IC50: curve of first compound; for viability, T/C: stronger effect = lower value
Method in brief: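 Complex 3D spheroids (cancer cells + endothelial HUVEC + mesenchymal stem cells); drug pairs of targeted agent x inavolisib/alpelisib/duvelisib/copanlisib; half-log series from ~Cmax, max 10 microM if Cmax unknown; endpoint viability.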

[1] = second compound 0.00316 µM, first compound 0.0316 µM
[2] = second compound 0.00316 µM, first compound 0.1 µM
[3] = second compound 0.00316 µM, first compound 0.316 µM
[4] = second compound 0.00316 µM, first compound 1 µM
[5] = second compound 0.00316 µM, first compound 3.16 µM
[6] = second compound 0.00316 µM, first compound 10 µM
[7] = second compound 0.01 µM, first compound 0.0316 µM
[8] = second compound 0.01 µM, first compound 0.1 µM
[9] = second compound 0.01 µM, first compound 0.316 µM
[10] = second compound 0.01 µM, first compound 1 µM
[11] = second compound 0.01 µM, first compound 3.16 µM
[12] = second compound 0.01 µM, first compound 10 µM
[13] = second compound 0.0316 µM, first compound 0.0316 µM
[14] = second compound 0.0316 µM, first compound 0.1 µM
[15] = second compound 0.0316 µM, first compound 0.316 µM
[16] = second compound 0.0316 µM, first compound 1 µM
[17] = second compound 0.0316 µM, first compound 3.16 µM
[18] = second compound 0.0316 µM, first compound 10 µM
[19] = second compound 0.1 µM, first compound 0.0316 µM
[20] = second compound 0.1 µM, first compound 0.1 µM
[21] = second compound 0.1 µM, first compound 0.316 µM
[22] = second compound 0.1 µM, first compound 1 µM
[23] = second compound 0.1 µM, first compound 3.16 µM
[24] = second compound 0.1 µM, first compound 10 µM
[25] = second compound 0.316 µM, first compound 0.0316 µM
[26] = second compound 0.316 µM, first compound 0.1 µM
[27] = second compound 0.316 µM, first compound 0.316 µM
[28] = second compound 0.316 µM, first compound 1 µM
[29] = second compound 0.316 µM, first compound 3.16 µM
[30] = second compound 0.316 µM, first compound 10 µM
[31] = second compound 1 µM, first compound 0.0316 µM
[32] = second compound 1 µM, first compound 0.1 µM
[33] = second compound 1 µM, first compound 0.316 µM
[34] = second compound 1 µM, first compound 1 µM
[35] = second compound 1 µM, first compound 3.16 µM
[36] = second compound 1 µM, first compound 10 µM
[37] = second compound 3.16 µM, first compound 0.0316 µM
[38] = second compound 3.16 µM, first compound 0.1 µM
[39] = second compound 3.16 µM, first compound 0.316 µM
[40] = second compound 3.16 µM, first compound 1 µM
[41] = second compound 3.16 µM, first compound 3.16 µM
[42] = second compound 3.16 µM, first compound 10 µM
[43] = second compound 10 µM, first compound 0.0316 µM
[44] = second compound 10 µM, first compound 0.1 µM
[45] = second compound 10 µM, first compound 0.316 µM
[46] = second compound 10 µM, first compound 1 µM
[47] = second compound 10 µM, first compound 3.16 µM
[48] = second compound 10 µM, first compound 10 µM
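Also: spheroids exposed to agents for seven days before readout.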
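For viability, T/C in this document: percent of vehicle DMSO control viability so 100% = untreated growth.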

Structure (SMILES): CCCS(=O)(=O)Nc1ccc(F)c(C(=O)c2c[nH]c3ncc(-c4ccc(Cl)cc4)cc23)c1F + CC(Nc1ccc2c(c1)OCCn1cc(N3C(=O)OCC3C(F)F)nc1-2)C(N)=O
- IC50 (second compound 0.00316 µM): 5.21 µM
- IC50 (second compound 0.01 µM): 5.49 µM
- IC50 (second compound 0.0316 µM): 4.3 µM
- IC50 (second compound 0.1 µM): 3.43 µM
- IC50 (second compound 0.316 µM): 3.84 µM
- IC50 (second compound 1 µM): < 0.0316 µM
- viability, T/C [1]: 98%
- viability, T/C [2]: 90.1%
- viability, T/C [3]: 102%
- viability, T/C [4]: 103%
- viability, T/C [5]: 84.1%
- viability, T/C [6]: 5.37%
- viability, T/C [7]: 80.5%
- viability, T/C [8]: 88.5%
- viability, T/C [9]: 97.6%
- viability, T/C [10]: 100%
- viability, T/C [11]: 92.3%
- viability, T/C [12]: 4.83%
- viability, T/C [13]: 76.3%
- viability, T/C [14]: 90%
- viability, T/C [15]: 87%
- viability, T/C [16]: 91.2%
- viability, T/C [17]: 66.9%
- viability, T/C [18]: 3.26%
- viability, T/C [19]: 71.9%
- viability, T/C [20]: 77.4%
- viability, T/C [21]: 69.1%
- viability, T/C [22]: 66.4%
- viability, T/C [23]: 54.5%
- viability, T/C [24]: 4.8%
- viability, T/C [25]: 64.4%
- viability, T/C [26]: 67.4%
- viability, T/C [27]: 65.8%
- viability, T/C [28]: 48.9%
- viability, T/C [29]: 59.7%
- viability, T/C [30]: 4.86%
- viability, T/C [31]: 49.1%
- viability, T/C [32]: 48.2%
- viability, T/C [33]: 46%
- viability, T/C [34]: 46.2%
- viability, T/C [35]: 41.3%
- viability, T/C [36]: 5.27%

Structure (SMILES): C=CC(=O)N1CCN(c2nc(=O)n(-c3c(C)ccnc3C(C)C)c3nc(-c4c(O)cccc4F)c(F)cc23)C(C)C1 (stereo not drawn) + CC(Nc1ncnc2nc[nH]c12)c1cc2cccc(Cl)c2c(=O)n1-c1ccccc1
- IC50 (second compound 0.0316 µM): > 10 µM
- IC50 (second compound 0.1 µM): > 10 µM
- IC50 (second compound 0.316 µM): > 10 µM
- IC50 (second compound 1 µM): > 10 µM
- IC50 (second compound 3.16 µM): > 10 µM
- IC50 (second compound 10 µM): > 10 µM
- viability, T/C [13]: 94.3%
- viability, T/C [14]: 95.8%
- viability, T/C [15]: 103%
- viability, T/C [16]: 103%
- viability, T/C [17]: 105%
- viability, T/C [18]: 98%
- viability, T/C [19]: 88.5%
- viability, T/C [20]: 92.5%
- viability, T/C [21]: 96.1%
- viability, T/C [22]: 89.8%
- viability, T/C [23]: 96.3%
- viability, T/C [24]: 100%
- viability, T/C [25]: 91%
- viability, T/C [26]: 96.6%
- viability, T/C [27]: 107%
- viability, T/C [28]: 99.7%
- viability, T/C [29]: 104%
- viability, T/C [30]: 90.5%
- viability, T/C [31]: 85.7%
- viability, T/C [32]: 90.4%
- viability, T/C [33]: 118%
- viability, T/C [34]: 102%
- viability, T/C [35]: 108%
- viability, T/C [36]: 123%
- viability, T/C [37]: 74.9%
- viability, T/C [38]: 70.3%
- viability, T/C [39]: 74.7%
- viability, T/C [40]: 86.2%
- viability, T/C [41]: 93.3%
- viability, T/C [42]: 82.7%
- viability, T/C [43]: 72.5%
- viability, T/C [44]: 57.5%
- viability, T/C [45]: 69.4%
- viability, T/C [46]: 72.8%
- viability, T/C [47]: 94.9%
- viability, T/C [48]: 74.9%

Structure (SMILES): Cn1ncc(Cl)c1-c1cc(C(=O)NC(CN)Cc2cccc(F)c2)sc1Cl (stereo not drawn) + COc1c(OCCCN2CCOCC2)ccc2c3n(c(=NC(=O)c4cnc(N)nc4)nc12)CCN3
- IC50 (second compound 0.00316 µM): 0.781 µM
- IC50 (second compound 0.01 µM): 0.416 µM
- IC50 (second compound 0.0316 µM): 0.376 µM
- IC50 (second compound 0.1 µM): < 0.0316 µM
- IC50 (second compound 0.316 µM): < 0.0316 µM
- IC50 (second compound 1 µM): < 0.0316 µM
- viability, T/C [1]: 88.6%
- viability, T/C [2]: 79.1%
- viability, T/C [3]: 60.2%
- viability, T/C [4]: 45.7%
- viability, T/C [5]: 32.3%
- viability, T/C [6]: 11.2%
- viability, T/C [7]: 71.8%
- viability, T/C [8]: 67.8%
- viability, T/C [9]: 50.6%
- viability, T/C [10]: 40.1%
- viability, T/C [11]: 29%
- viability, T/C [12]: 18.4%
- viability, T/C [13]: 59.1%
- viability, T/C [14]: 68.6%
- viability, T/C [15]: 50%
- viability, T/C [16]: 34.5%
- viability, T/C [17]: 23.1%
- viability, T/C [18]: 11.7%
- viability, T/C [19]: 40.8%
- viability, T/C [20]: 36.4%
- viability, T/C [21]: 37%
- viability, T/C [22]: 26.4%
- viability, T/C [23]: 17.2%
- viability, T/C [24]: 9.98%
- viability, T/C [25]: 21.1%
- viability, T/C [26]: 13.9%
- viability, T/C [27]: 14.8%
- viability, T/C [28]: 14.2%
- viability, T/C [29]: 13%
- viability, T/C [30]: 7.08%
- viability, T/C [31]: 4.42%
- viability, T/C [32]: 4.98%
- viability, T/C [33]: 4.84%
- viability, T/C [34]: 6.71%
- viability, T/C [35]: 4.88%
- viability, T/C [36]: 1.6%

Structure (SMILES): C#Cc1c(F)ccc2cc(O)cc(-c3ncc4c(N5CC6CCC(C5)N6)nc(OCC56CCCN5CC(F)C6)nc4c3F)c12 (stereo not drawn) + CC(Nc1ncnc2nc[nH]c12)c1cc2cccc(Cl)c2c(=O)n1-c1ccccc1
- IC50 (second compound 0.0316 µM): > 10 µM
- IC50 (second compound 0.1 µM): > 10 µM
- IC50 (second compound 0.316 µM): > 10 µM
- IC50 (second compound 1 µM): > 10 µM
- IC50 (second compound 3.16 µM): > 10 µM
- IC50 (second compound 10 µM): 3.37 µM
- viability, T/C [13]: 90%
- viability, T/C [14]: 78.4%
- viability, T/C [15]: 82.8%
- viability, T/C [16]: 86.4%
- viability, T/C [17]: 82%
- viability, T/C [18]: 63.6%
- viability, T/C [19]: 90.8%
- viability, T/C [20]: 87%
- viability, T/C [21]: 90.8%
- viability, T/C [22]: 97.7%
- viability, T/C [23]: 82.6%
- viability, T/C [24]: 64.8%
- viability, T/C [25]: 96.1%
- viability, T/C [26]: 92.9%
- viability, T/C [27]: 90.1%
- viability, T/C [28]: 87.5%
- viability, T/C [29]: 73.5%
- viability, T/C [30]: 65.4%
- viability, T/C [31]: 83.3%
- viability, T/C [32]: 75.7%
- viability, T/C [33]: 88.6%
- viability, T/C [34]: 78.4%
- viability, T/C [35]: 88.4%
- viability, T/C [36]: 66.8%
- viability, T/C [37]: 84.7%
- viability, T/C [38]: 67.6%
- viability, T/C [39]: 73.7%
- viability, T/C [40]: 75%
- viability, T/C [41]: 69%
- viability, T/C [42]: 62.6%
- viability, T/C [43]: 54.5%
- viability, T/C [44]: 58.2%
- viability, T/C [45]: 53.9%
- viability, T/C [46]: 49.4%
- viability, T/C [47]: 55.6%
- viability, T/C [48]: 44.9%
